Source: ChEMBL document CHEMBL2074206, “Uraemic toxins induce proximal tubular injury via organic anion transporter 1-mediated uptake” (Br J Pharmacol, 2002)

Biological target: T1, Solute carrier family 22 member 6 (Homo sapiens, UniProt Q4U2R8)
T1 sequence (Q4U2R8 whole entry): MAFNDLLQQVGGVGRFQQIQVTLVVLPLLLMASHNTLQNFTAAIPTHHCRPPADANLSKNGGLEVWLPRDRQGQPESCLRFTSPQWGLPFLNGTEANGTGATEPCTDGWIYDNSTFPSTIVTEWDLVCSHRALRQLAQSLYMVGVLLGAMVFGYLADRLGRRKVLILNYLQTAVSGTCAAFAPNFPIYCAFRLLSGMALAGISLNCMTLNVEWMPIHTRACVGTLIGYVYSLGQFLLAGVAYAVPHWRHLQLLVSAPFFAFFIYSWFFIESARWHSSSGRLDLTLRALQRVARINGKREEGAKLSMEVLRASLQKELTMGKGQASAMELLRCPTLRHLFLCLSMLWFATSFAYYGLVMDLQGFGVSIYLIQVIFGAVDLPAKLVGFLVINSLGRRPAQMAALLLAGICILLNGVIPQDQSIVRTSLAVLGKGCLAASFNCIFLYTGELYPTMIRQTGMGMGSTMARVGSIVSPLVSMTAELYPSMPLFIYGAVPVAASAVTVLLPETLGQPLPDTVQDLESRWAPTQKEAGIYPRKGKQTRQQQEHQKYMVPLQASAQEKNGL
Experiment: TP_TRANSPORTER: inhibition of PAH uptake in OAT1-expressing OK cells
Assay type: functional, cell-based

- IC50: 25 µM
Compound: O=C(O)CNC(=O)c1ccc(O)cc1
